Laboratory results as given in US12630563B2, “Macrocyclic RIP2-kinase inhibitors” (Oncodesign S.A., priority 2020, dated 2026).

molecular target: T1, recombinant hRIPK2 protein (kinase domain aa 1-299-His-tagged) (Homo sapiens, UniProt O43353); assay: RIPK2 AlphaLISA assay (displacement of bead-bound CZC-8004 from hRIPK2); assay type: binding; details: recombinant hRIPK2 kinase domain 10 nM, 2 h at 23° C.
T1 construct: kinase domain aa 1-299-His-tagged; purchased Life Technologies PR7829A
Text: RIPK2 AlphaLISA® Assay (Amplified Luminescent Proximity Homogeneous Assay)
A non-specific kinase inhibitor (CZC-8004 Cayman #916603-07-1) bound to an acceptor bead (#6772001 PerkinElmer) was mixed to the recombinant hRIPK2 protein (kinase domain aa 1-299-His-tagged—Life Technologies PR7829A) and a Ni2+-tagged donor beads (#AS101D PerkinElmer). In the presence of an inhibitor, the compound beads displacement from hRIPK2 was followed by signal loss. In a 384-well ProxiPlate@ (Perkin Elmer, 6008280) add:
2 μL RIPK2 inhibitor (in DMSO 0.8%).
2 μL human recombinant RIPK2 (10 nM diluted in AlphaLISA buffer 1×).
4 μL Mix of […] 1/1000 in AlphaLISA buffer 1×.
Homogenize using a microtiter plate shaker and incubate for 2 h at 23° C.
Read using EnVision®-Alpha Reader (PerkinElmer) according to manufacturer specifications.

T1 sequence (O43353 1-299): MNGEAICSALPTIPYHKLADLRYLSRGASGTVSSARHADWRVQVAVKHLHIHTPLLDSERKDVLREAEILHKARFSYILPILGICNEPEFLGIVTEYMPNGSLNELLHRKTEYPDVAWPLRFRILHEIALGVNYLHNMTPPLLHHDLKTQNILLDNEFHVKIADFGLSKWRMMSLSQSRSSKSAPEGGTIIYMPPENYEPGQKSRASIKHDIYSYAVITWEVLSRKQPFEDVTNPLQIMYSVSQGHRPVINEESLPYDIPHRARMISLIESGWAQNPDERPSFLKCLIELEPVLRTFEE

SMILES | IC50
COCCO[C@@H]1C[C@H]2COc3ccn4ncc(c4n3)-c3cc(C#N)cc(c3)NCCN2C1=O (racemic) [Example 114, (12R,14S)-12-(2-methoxyethoxy)-11-oxo-16-oxa-7,10,20,21,24-pentaazapentacyclo[15.5.2.1^2,6.0^10,^14.0^20,^23]pentacosa-1(23),2,4,6(25),17(24),18,21-heptaene-4-carbonitrile] | < 10 nM
CCN(C)C(=O)c1cc2cc(c1)-c1cnn3cc(C)c(nc13)OC[C@@H]1C[C@@H](OC)C(=O)N1CCN2 [Example 62, (12R,14S)-N-ethyl-12-methoxy-N,18-dimethyl-11-oxo-16-oxa-7,10,20,21,24-pentaazapentacyclo[15.5.2.1^2,6.0^10,^14.0^20,^23]pentacosa-1(23),2(25),3,5,17(24),18,21-heptaene-4-carboxamide] | < 10 nM
CO[C@@H]1C[C@H]2COc3nc4c(cnn4cc3C)-c3cc(F)cc(c3)NCCN2C1=O [Example 30, (12R,14S)-4-fluoro-12-methoxy-18-methyl-16-oxa-7,10,20,21,24-pentaazapentacyclo[15.5.2.1^2,6.0^10,^14.0^20,^23]pentacosa-1(23),2(25),3,5,17(24),18,21-heptaen-11-one] | < 10 nM
CO[C@@H]1C[C@H]2COc3ccn4ncc(c4n3)-c3cc(cc(-n4ncc(C)c4C)c3)NCCN2C1=O [Example 84, (12R,14S)-4-(4,5-dimethyl-1H-pyrazol-1-yl)-12-methoxy-16-oxa-7,10,20,21,24-pentaazapentacyclo[15.5.2.1^2,6.0^1°,^14.0^2°,^23]pentacosa-1(23),2(25),3,5,17(24),18,21-heptaen-11-one] | < 10 nM
COCc1cn2ncc3c2nc1OC[C@@H]1C[C@@H](OC)C(=O)N1CCNc1cc(F)cc-3c1 [Example 33, (12R,14S)-4-fluoro-12-methoxy-18-(methoxymethyl)-16-oxa-7,10,20,21,24-pentaazapentacyclo[15.5.2.1^2,6.0^10,^14.0^20,^23]pentacosa-1(23),2(25),3,5,17(24),18,21-heptaen-11-one] | < 10 nM
O=C1[C@H](OC2CC2)C[C@H]2COc3ccn4ncc(c4n3)-c3cc(F)cc(c3)NCCN12 [Example 80, (12R,14S)-12-cyclopropoxy-4-fluoro-16-oxa-7,10,20,21,24-pentaazapentacyclo[15.5.2.1^2,6.0^1°,^14.0^2°,^23]pentacosa-1(23),2(25),3,5,17(24),18,21-heptaen-11-one] | < 10 nM
COCCc1cn2ncc3c2nc1OC[C@@H]1C[C@@H](OC)C(=O)N1CCNc1cc(F)cc-3c1 [Example 77, (12R,14S)-4-fluoro-12-methoxy-18-(2-methoxyethyl)-16-oxa-7,10,20,21,24-pentaazapentacyclo[15.5.2.1^2,6.0^1°,^14.0^2°,^23]pentacosa-1(23),2(25),3,5,17(24),18,21-heptaen-11-one] | < 10 nM
[2H]C([2H])([2H])Oc1cn2ncc3c2nc1OC[C@@H]1C[C@@H](OC)C(=O)N1CCNc1cc(F)cc-3c1 [Example 92, (12R,14S)-4-fluoro-18-(^2H3)methoxy-12-methoxy-16-oxa-7,10,20,21,24-pentaazapentacyclo[15.5.2.1^2,6.0^1°,^14.0^2°,^23]pentacosa-1(23),2(25),3,5,17(24),18,21-heptaen-11-one] | < 10 nM
COCCO[C@@H]1C[C@H]2COc3ccn4ncc(c4n3)-c3cc(cc(OC(C)C)c3)NCCN2C1=O (racemic) [Example 113, (12R,14S)-12-(2-methoxyethoxy)-4-(propan-2-yloxy)-16-oxa-7,10,20,21,24-pentaazapentacyclo[15.5.2.1^2,6.0^10,^14.0^20,^23]pentacosa-1(23),2(25),3,5,17(24),18,21-heptaen-11-one] | 10 to 100 nM
CO[C@@H]1C[C@H]2COc3ccn4ncc(c4n3)-c3cc(cc(-n4nc(C)cc4C)c3)NCCN2C1=O [Example 83, (12R,14S)-4-(3,5-dimethyl-1H-pyrazol-1-yl)-12-methoxy-16-oxa-7,10,20,21,24-pentaazapentacyclo[15.5.2.1^2,6.0^1°,^14.0^2°,^23]pentacosa-1(23),2(25),3,5,17(24),18,21-heptaen-11-one] | < 10 nM
COCCO[C@@H]1C[C@H]2COc3ccn4ncc(c4n3)-c3cc(cc(C(=O)C4CC4)c3)NCCN2C1=O [Example 101, (12R,14S)-4-cyclopropanecarbonyl-12-(2-methoxyethoxy)-16-oxa-7,10,20,21,24-pentaazapentacyclo[15.5.2.1^2,6.0^1°,^14.0^2°,^23]pentacosa-1(23),2,4,6(25),17(24),18,21-heptaen-11-one] | 100 to 11000 nM
COCCO[C@@H]1C[C@H]2COc3ccn4ncc(c4n3)-c3cc(O)cc(c3)NCCN2C1=O [Example 97, (12R,14S)-4-hydroxy-12-(2-methoxyethoxy)-16-oxa-7,10,20,21,24-pentaazapentacyclo[15.5.2. 1^2,6.0^10,^14.0^20,^23]pentacosa-1(23),2,4,6(25),17(24),18,21-heptaen-11-one] | < 10 nM
C=Cc1cc2cc(c1)-c1cnn3ccc(nc13)OC[C@@H]1C[C@@H](OCC)C(=O)N1CCN2 [Example 102, (12R,14S)-4-ethenyl-12-ethoxy-16-oxa-7,10,20,21,24-pentaazapentacyclo[15.5.2.1^2,6.0^1°,^14.0^2°,^23]pentacosa-1(23),2,4,6(25),17(24),18,21-heptaen-11-one] | < 10 nM

Other lines, results leading:

IC50 | SMILES
< 10 nM | CCO[C@@H]1C[C@H]2COc3nc4c(cnn4cc3C)-c3cc(F)cc(c3)NCCN2C1=O [Example 18, (12R,14S)-12-ethoxy-4-fluoro-18-methyl-16-oxa-7,10,20,21,24-pentaazapentacyclo[15.5.2.1^2,6.0^10,^14.0^20,^23]pentacosa-1(23),2,4,6(25),17(24),18,21-heptaen-11-one]
< 10 nM | COCCO[C@@H]1C[C@H]2COc3nc4c(cnn4cc3OC3COC3)-c3cc(cc(OC)c3)NCCN2C1=O [Example 138, (12R,14S)-4-methoxy-12-(2-methoxyethoxy)-18-(oxetan-3-yloxy)-16-oxa-7,10,20,21,24-pentaazapentacyclo[15.5.2. 1^2,6.0^10,^14.0^20,^23]pentacosa-1(23),2,4,6(25),17(24),18,21-heptaen-11-one]
< 10 nM | COCCO[C@@H]1C[C@H]2COc3nc4c(cnn4cc3OCC3CCO3)-c3cc(cc(OC)c3)NCCN2C1=O (stereo partly drawn) [Example 130, (12R,14S)-4-methoxy-12-(2-methoxyethoxy)-18-(oxetan-2-ylmethoxy)-16-oxa-7,10,20,21,24-pentaazapentacyclo[15.5.2. 1^2,6.0^10,^14.0^20,^23]pentacosa-1(23),2,4,6(25),17(24),18,21-heptaen-11-one]
< 10 nM | COCCO[C@@H]1C[C@H]2COc3ccn4ncc(c4n3)-c3cc(cc(OC(F)F)c3)NCCN2C1=O (racemic) [Example 111, (12R,14S)-4-(difluoromethoxy)-12-(2-methoxyethoxy)-16-oxa-7,10,20,21,24-pentaazapentacyclo[15.5.2.1^2,6.0^10,^14.0^20,^23]pentacosa-1(23),2(25),3,5,17(24),18,21-heptaen-11-one]
10 to 100 nM | CO[C@@H]1C[C@H]2COc3ccn4ncc(c4n3)-c3cc(cc(-c4cn(C)nn4)c3)NCCN2C1=O [Example 119, (12R,14S)-12-methoxy-4-(1-methyl-1H-1,2,3-triazol-4-yl)-16-oxa-7,10,20,21,24-pentaazapentacyclo[15.5.2.1^2,6.0^1°,^14.0^2°,^23]pentacosa-1(23),2,4,6(25),17(24),18,21-heptaen-11-one]
< 10 nM | CCO[C@@H]1C[C@H]2COc3ccn4ncc(c4n3)-c3cc(F)cc(c3)NCCN2C1=O [Example 17, (12R,14S)-12-ethoxy-4-fluoro-16-oxa-7,10,20,21,24-pentaazapentacyclo[15.5.2.1^2,6.0^10,^14.0^20,^23]pentacosa-1(23),2,4,6(25),17(24),18,21-heptaen-11-one]
< 10 nM | CO[C@@H]1C[C@H]2COc3nc4c(cnn4cc3F)-c3cc(F)cc(c3)NCCN2C1=O [Example 34, (12R,14S)-4,18-difluoro-12-methoxy-16-oxa-7,10,20,21,24-pentaazapentacyclo[15.5.2.1^2,6.0^10,^14.0^20,^23]pentacosa-1(23),2(25),3,5,17(24),18,21-heptaen-11-one]
100 to 11000 nM | CO[C@@H]1C[C@H]2COc3ccn4ncc(c4n3)-c3cc(cc(-c4cnn(CCO)c4)c3)NCCN2C1=O [Example 93, (12R,14S)-4-[1-(2-hydroxyethyl)-1H-pyrazol-4-yl]-12-methoxy-16-oxa-7,10,20,21,24-pentaazapentacyclo[15.5.2.1^2,6.0^1°,^14.0^2°,^23]pentacosa-1(23),2,4,6(25),17(24),18,21-heptaen-11-one]
< 10 nM | COCCOc1cn2ncc3c2nc1OC[C@@H]1C[C@@H](OCCOC)C(=O)N1CCNc1cc(OC)cc-3c1 [Example 137, (12R,14S)-4-methoxy-12,18-bis(2-methoxyethoxy)-16-oxa-7,10,20,21,24-pentaazapentacyclo[15.5.2. 1^2,6.0^10,^14.0^20,^23]pentacosa-1(23),2,4,6(25),17(24),18,21-heptaen-11-one]
< 10 nM | CC#Cc1cc2cc(c1)-c1cnn3ccc(nc13)OC[C@@H]1C[C@@H](OC)C(=O)N1CCN2 [Example 88, (12R,14S)-12-methoxy-4-(prop-1-yn-1-yl)-16-oxa-7,10,20,21,24-pentaazapentacyclo[15.5.2.1^2,6.0^1°,^14.0^2°,^23]pentacosa-1(23),2,4,6(25),17(24),18,21-heptaen-11-one]
< 10 nM | CO[C@@H]1CC2(C)COc3ccn4ncc(c4n3)-c3cc(F)cc(c3)NCCN2C1=O (single isomer, unassigned) [Example 86]
